Key:
E0771 cells [1] = test: MTT assay, E0771; type: cell-based, mouse
Protocol: A total of 5,000 cells stably expressing sh137, sh413, or shControl were plated in 96-well plates. Cells were then incubated with 5 mg/ml MTT reagent for 3.5 hours followed by addition of MTT solvent (0.1% NP-40 and 4 mM HCl in isopropanol) and rocking for 15 minutes. Absorbance at 590 nm was read using a Tecan Infinite M200 Pro plate reader.

E0771 cells [2] = test: Boyden chamber assay; type: cell-based, mouse; details: 20 hours
Protocol: The apical chamber of 24-well cell culture inserts (Merck Millipore, Billerica, Mass., USA) were seeded with previously starved sh137, sh413 or shControl transduced E0771 cells (150,000) in serum-free medium. Culture medium containing 30% FBS was added to the basal chamber of the unit and cells were allowed to migrate through the membranous barrier for 20 hours at 37° C. Non-migrated cells were washed off, migrated cells were fixed with 4% PFA for 5 minutes, washed twice with 1×PBS, permeabilized with 100% methanol for 25 minutes, labeled with Giemsa stain (for 15 minutes at room temperature) and imaged using a Nikon Eclipse Ti microscope adjusted with an X-cite series 120 LED fluorescence microscope light source and a Nikon digital sight camera. Images were processed using Image J software. Cells from five different fields were counted and averaged.

E0771 and 4T1 cells = test: BrdU assay; type: cell-based, mouse
Protocol: A total of 5,000 cells were plated in 96-well plates for 24 hours. Bromodeoxyuridine or 5-bromo-2′-deoxyuridine (BrdU) (Calbiochem, Billerica, Mass., USA) assay was carried out according to the manufacturer's instructions. Absorbance at 450 nm was read using a Tecan Infinite plate reader. In parallel, 150,000 cells were plated in 24-well plates for 24 hours. Cells were incubated with BrdU label (1:2000) for 20 hours, treated with a fixative/denaturing solution (30 minutes) and incubated with an anti-BrdU antibody (1:1000) and rat anti-mouse BST-2 antibody (1:200, eBioscience) for 1 hour at room temperature. Cells were washed and incubated with Alexa Fluor 594 anti-rat (Invitrogen, Waltham, Mass., USA) and Alexa Fluor 488 anti-mouse (Invitrogen) secondary antibodies for 30 minutes at room temperature. Cells were stained with 4′,6-diamidino-2-phenylindole (DAPI)-containing Vectashield (Vector Laboratories, Burlingame, Calif., USA) and imaged using a Zeiss 710 confocal microscope (Carl Zeiss, Oberkochen, Germany). Images were processed using Image J software. BrdU label, fixative/denaturing solution, and anti-BrdU antibody were from BrdU (Calbiochem) assay.

4T1 cells = test: Anoikis assay (Poly-HEMA); type: cell-based, mouse; details: 48 hours
Protocol: 96-well plates were coated with 50 ul of sterile 95% Ethanol or 50 ul of 12 mg/ml Poly-HEMA in 95% Ethanol (Sigma-Aldrich) and allowed to dry for 72 hours under the hood as previously described. (See Phung et al. (2011) Rapid generation of in vitro multicellular spheroids for the study of monoclonal antibody therapy. J Cancer 2: 507-514). Poly-HEMA prevents cells from attaching to the plastic. Following, 4T1 shControl, sh413, sh413 WT, or sh413 C3A cells were plated at 20,000 cells/well. Plates were centrifuged at 1,200 g for 10 minutes and then incubated at 37° C. for 48 hours. Cells were collected to test cell viability using trypan blue (Life technologies) and an MTT assay (Life technologies). The rest of the cells were pelleted and kept at −20° C. until used for RNA and protein isolation.

E0771 or 4T1 cells = test: Cell invasion assay (Matrigel); type: cell-based, mouse; details: 24 h
Protocol: The apical chamber of 24-well cell culture inserts (Merck Millipore) were coated with 3 mg/ml of Matrigel (100 μl) (Sigma-Aldrich) and allowed to solidify for 5 hours. A total of 100,000 sh413- or shControl-transduced E0771 or 4T1 cells in serum-free medium were plated on top of the Matrigel layer. Culture medium containing 10% FBS and 5 μg/ml fibronectin (adhesive substrate) (Sigma-Aldrich) was added to the basal chamber of the unit (600 μl) and cells were allowed to invade through the membranous barrier for 24 hours at 37° C. Noninvasive cells were washed off; invasive cells were fixed with 4% PFA, permeabilized with 100% methanol, labeled with Giemsa stain and imaged as described in the previous paragraph. Images were processed using Image J software. Cells from five different fields were counted and averaged.

E0771 cells [3] = test: Orthotopic implantation of E0771 cells in C57BL/6 mice; type: in vivo
Protocol: Five-week-old C57BL/6NCr and BALB/cAnNCr female mice were used. Mice were sacrificed when they became moribund. Tumor volume (TV) was calculated as: TV=0.5(length*width2). Tumor latency was calculated as the number of tumor-free injected mice/number of injected mice×100. To assess morbidity, the following clinical score ranking was used: (0) no abnormal clinical signs, (1) ruffled fur but lively, (2) ruffled fur, activity level slowing, sick, (3) ruffled fur, eyes squeezed shut, hunched, hardly moving, very sick, (4) moribund and (5) dead. Experiments involving mice were approved by the University of Iowa Animal Care and Use Committee (IACUC).
Prior to imaging, mice were anesthetized, weighed and injected intraperitoneally with D-luciferin. Mice were imaged using the Xenogen IVIS three dimensional optical imaging system (Caliper Life Sciences, Hopkinton, Mass., USA). Luciferase was quantified with Living Image Software (Caliper Life Sciences).

E0771 cells [4] = test: MEF adhesion assay; type: cell-based, mouse; details: luciferase bioluminescence and PKH67Green
Protocol: Murine embryonic fibroblasts (MEFs) were grown to confluency in 6-well plates. Equivalent numbers (150,000) of cancer cells labeled with PKH67Green fluorescent cell linker, following the manufacturer's instructions (Sigma-Aldrich), were added to the MEF monolayer and allowed to incubate for 8 hours. Non-adhered cells were washed off and adhered cells imaged. Image J (NIH, Bethesda, Md., USA) was used to quantify the number of PKH67Greenpositive cells. In parallel, luciferase-expressing cancer cells were added to MEFs monolayers in 6-well plates for 8 hours. Non-adhered cells were washed off and adhered cells were treated with D-luciferin and imaged using IVIS. For luciferase assay, cancer cells plated in 96-well plate were used for quantitation of luciferase bioluminescence.

Question: “sh413: BST-2-targeting shRNA (SEQ ID NO:4), delivered by lentiviral particles (CCGGGCTTGAGAATGAAGTCACGAACTCGAGTTCGTGACTTCATTCTCAAGCTTTTTG)” was tested. Which “cell viability (MTT)” value (E0771 cells [1]) did it give?
Answer: equally viable

Question: What about the “rate of cell migration (Boyden chamber)” value (E0771 cells [2]) of the same substance?
Answer: significantly reduced rate of cell migration

Question: What about the “cell proliferation (BrdU incorporation)” value (E0771 and 4T1 cells) of the same substance?
Answer: no effect on cell proliferation

Question: What about the susceptibility to anoikis (4T1 cells) of the same substance?
Answer: renders cells susceptible to anoikis

Question: And the “invasion through Matrigel” value (E0771 or 4T1 cells)?
Answer: reduced the ability of the cells to invade the basement membrane

Question: And the “median overall survival (OS)” value (E0771 cells [3]; Kaplan-Meier)?
Answer: 23 days

Question: And the “survival area under the curve (AUC)” value (E0771 cells [3]; Kaplan-Meier)?
Answer: 2,679

Question: And the malignant ascites (E0771 cells [3]; n=10)?
Answer: prevented the development of malignant ascites

Question: What about the “cancer cell adhesion to MEF” value (E0771 cells [4]) of the same substance?
Answer: decreased the ability of cancer cells to adhere to supporting cells

— patent US20180200331A1, “BST-2 AS A THERAPEUTIC TARGET AND DIAGNOSTIC MARKER FOR BREAST CANCER GROWTH AND METASTASIS” (University of Iowa Research Foundation, priority 2015, published 2018)
